The record followed here is US20240148821A1, “PHARMACEUTICAL USE OF CYCLIC PEPTIDE COMPOUND” (CHUGAI SEIYAKU KABUSHIKI KAISHA, priority 2021, published 2024).

Structures are written as SMILES. pIC50: −log10 of the molar value. Numbered stars: 1 amine (or outer) side, 2 acyl side, 3 side chain; on linkers, the order of the positions; unused ones are H or OH. Bridge positions count the residues as written; N and C are the ends. Square brackets hold non-standard residues; d marks the D form. Peptide text beside a SMILES is read from it. * marks the point of attachment. hPhe(3,5-F2-4-CF3) = N[C@@H](CCc1cc(F)c(C(F)(F)F)c(F)c1)C(=O)O; hPhe(3-Cl-4-CF3) = N[C@@H](CCc1ccc(C(F)(F)F)c(Cl)c1)C(=O)O; NEtPhe(4-CF3) = CCN[C@@H](Cc1ccc(C(F)(F)F)cc1)C(=O)O; NMePhe(4-CF3) = CN[C@@H](Cc1ccc(C(F)(F)F)cc1)C(=O)O; hPhe(4-CF3) = N[C@@H](CCc1ccc(C(F)(F)F)cc1)C(=O)O; NMePhe(4-Cl) = CN[C@@H](Cc1ccc(Cl)cc1)C(=O)O; NMePhe(4-Me) = CN[C@@H](Cc1ccc(C)cc1)C(=O)O; NMedβ3hAla = C[C@H](CC(=O)[*:2])N(C)[*:1]; NMeGly(cPent) = CN[C@H](C(=O)O)C1CCCC1; Pro(4,4-F2) = O=C(O)[C@@H]1CC(F)(F)CN1; dβ3hPip = O=C(C[C@H]1CCCCN1[*:1])[*:2]; NMeCha = CN[C@@H](CC1CCCCC1)C(=O)O; NEtLeu = CCN[C@@H](CC(C)C)C(=O)O; NMeF = CN[C@@H](Cc1ccccc1)C(=O)O; NMeI = CC[C@H](C)[C@H](NC)C(=O)O; N(CH2CH2)2CF2 = FC1(F)CCN(*)CC1; NMeD = CN[C@@H](CC(=O)O)C(=O)O; NMeL = CN[C@@H](CC(C)C)C(=O)O; NMehSer = CN[C@@H](CCO)C(=O)O; NEtAla = CCN[C@@H](C)C(=O)O; NMeV = CN[C@H](C(=O)O)C(C)C; d(β3hA) = C[C@@H](N)CC(=O)O; Azetidin(1-yl) = C1CN(*)C1; NMeA = CN[C@@H](C)C(=O)O; Piperidide = C1CCN(*)CC1; Ac5c = NC1(C(=O)O)CCCC1; Aze = O=C(O)[C@@H]1CCN1; Ac4c = NC1(C(=O)O)CCC1; Sar = CNCC(=O)O

The target of the test is protein-protein interaction between Kras and SOS1 (biotin-tagged human Kras loaded with GDP, His-tagged human SOS1) (Homo sapiens (Human), UniProt P01116, G12D). The test can be described thus: Protein-protein interaction inhibition between Kras and SOS1 (KrasG12D-SOS PPI) using AlphaScreen.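 Note: kras produced in E. coli, Ni-coupled donor beads and streptavidin acceptor beads, excitation 680 nm with emission detected at 520–620 nm via singlet oxygen transfer.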 The format is biochemical. The following applies: AlphaScreen; biotin-tagged human Kras loaded with GDP, His-tagged human SOS1; read-out: KRAS G12D-SOS PPI IC50. A general note: In Alpha technology, singlet oxygen from a donor bead excites a nearby acceptor bead.
In the case of `CO[C@H](C)[C@@H]1NC(=O)[C@H](CC(C)C)N(C)C(=O)C[C@@H](C(=O)N2CCCCC2)N(C)C(=O)[C@H](C(C)C)N(C)C(=O)C2(CCCC2)NC(=O)[C@@H]2CCCN2C(=O)[C@H](CCc2ccc(C(F)(F)F)c(Cl)c2)NC(=O)CN(C)C(=O)[C@H](CC2CCCCC2)N(C)C(=O)[C@@H]2CCN2C(=O)[C@H](C)N(C)C1=O` [Compound 497] ([NMeL]T(Me)[NMeA][Aze][NMeCha][Sar][hPhe(3-Cl-4-CF3)]P[Ac5c][NMeV][NMeD]-Piperidide; lactam N-11), the pIC50 was 8.37.

With `CC[C@H](C)[C@@H]1NC(=O)[C@H](CC(C)C)N(C)C(=O)C[C@@H](C(=O)N(C)C)NC(=O)[C@H]([C@@H](C)CC)N(C)C(=O)C2(CCCC2)NC(=O)[C@@H]2CCCN2C(=O)[C@H](CCc2ccc(C(F)(F)F)c(Cl)c2)NC(=O)CN(C)C(=O)[C@H](CC2CCCCC2)N(C)C(=O)[C@@H]2CCN2C(=O)[C@H](C)N(C)C1=O` [Compound 568] ([NMeL]I[NMeA][Aze][NMeCha][Sar][hPhe(3-Cl-4-CF3)]P[Ac5c][NMeI]D-NMe2; lactam N-11), the negative logarithm of the IC50 (pIC50) was 8.10.

In the case of `CC[C@H](C)[C@@H]1NC(=O)[C@H](CC(C)C)N(C)C(=O)C[C@@H](C)NC(=O)[C@H](C2CCCC2)N(C)C(=O)C2(CCCC2)NC(=O)[C@@H]2CCCN2C(=O)[C@H](CCc2ccc(C(F)(F)F)c(Cl)c2)NC(=O)CN(C)C(=O)[C@H](Cc2ccc(C(F)(F)F)cc2)N(C)C(=O)[C@@H]2CCN2C(=O)[C@H](C)N(C)C1=O` [Compound 1475] (cyclo([Ac5c][NMeGly(cPent)][d(β3hA)][NMeL]I[NMeA][Aze][NMePhe(4-CF3)][Sar][hPhe(3-Cl-4-CF3)]P)), the negative-log IC50 (pIC50) is 8.57.

With `CC[C@H](C)[C@@H]1NC(=O)[C@H](CC(C)C)N(CC)C(=O)C[C@@H](C(=O)N2CCC2)N(C)C(=O)[C@H](C2CCCC2)N(C)C(=O)C2(CCCC2)NC(=O)[C@@H]2CCCN2C(=O)[C@H](CCc2ccc(C(F)(F)F)c(Cl)c2)NC(=O)CN(C)C(=O)[C@H](CC2CCCCC2)N(C)C(=O)[C@@H]2CCN2C(=O)[C@H](C)NC1=O` [Compound 1262] ([NEtLeu]IA[Aze][NMeCha][Sar][hPhe(3-Cl-4-CF3)]P[Ac5c][NMeGly(cPent)][NMeD]-{Azetidin(1-yl)}; lactam N-11), the negative logarithm of the IC50 (pIC50) is 8.89.

Take `CC[C@H](C)[C@@H]1NC(=O)[C@H](C)N(C)C(=O)C[C@H]2CCCCN2C(=O)[C@H](C(C)C)N(C)C(=O)[C@H](Cc2ccccc2)N(C)C(=O)[C@H](CC(C)C)N(C)C(=O)[C@H](CCc2ccc(C(F)(F)F)cc2)NC(=O)CN(C)C(=O)[C@H](Cc2ccc(Cl)cc2)N(C)C(=O)CN(C)C(=O)CN(C)C1=O` [Compound 512] (cyclo(I[Sar][Sar][NMePhe(4-Cl)][Sar][hPhe(4-CF3)][NMeL][NMeF][NMeV][dβ3hPip][NMeA])): the negative logarithm of the IC50 (pIC50) is 6.82.

In the case of `CC[C@H](C)[C@@H]1NC(=O)[C@H](CC(C)C)N(C)C(=O)C[C@@H](C)N(C)C(=O)[C@H]([C@@H](C)CC)N(C)C(=O)C2(CCC2)NC(=O)[C@@H]2CC(F)(F)CN2C(=O)[C@H](CCc2cc(F)c(C(F)(F)F)c(F)c2)NC(=O)CN(C)C(=O)[C@H](Cc2ccc(C(F)(F)F)cc2)N(CC)C(=O)[C@@H]2CCN2C(=O)[C@H](C)N(C)C1=O` [Compound 85] (cyclo([Ac4c][NMeI][NMedβ3hAla][NMeL]I[NMeA][Aze][NEtPhe(4-CF3)][Sar][hPhe(3,5-F2-4-CF3)][Pro(4,4-F2)])), the pIC50 was 7.82.

Consider `CC[C@H](C)[C@@H]1NC(=O)[C@H](CC(C)C)N(C)C(=O)C[C@@H](C)NC(=O)[C@H](C2CCCC2)N(C)C(=O)C2(CCCC2)NC(=O)[C@@H]2CCCN2C(=O)[C@H](CCc2ccc(C(F)(F)F)c(Cl)c2)NC(=O)CN(C)C(=O)[C@H](Cc2ccc(C)cc2)N(C)C(=O)[C@@H]2CCN2C(=O)[C@H](C)N(CC)C1=O` [Compound 1023] (cyclo([Ac5c][NMeGly(cPent)][d(β3hA)][NMeL]I[NEtAla][Aze][NMePhe(4-Me)][Sar][hPhe(3-Cl-4-CF3)]P)), for which the pIC50 is 7.70.

For the compound `CC[C@H](C)[C@@H]1NC(=O)[C@H](CCOC)N(C)C(=O)C[C@@H](C(=O)N2CCCCC2)N(C)C(=O)[C@H](C(C)C)N(C)C(=O)C2(CCCC2)NC(=O)[C@@H]2CCCN2C(=O)[C@H](CCc2ccc(C(F)(F)F)c(Cl)c2)NC(=O)CN(C)C(=O)[C@H](CC2CCCCC2)N(C)C(=O)[C@@H]2CCN2C(=O)[C@H](C)N(C)C1=O` [Compound 397] ([NMehSer](Me)I[NMeA][Aze][NMeCha][Sar][hPhe(3-Cl-4-CF3)]P[Ac5c][NMeV][NMeD]-Piperidide; lactam N-11), the pIC50 was 8.64.

As for `CC[C@H](C)[C@@H]1NC(=O)[C@H](CC(C)C)N(C)C(=O)C[C@@H](C(=O)N2CCCCC2)N(C)C(=O)[C@H](C(C)C)N(C)C(=O)[C@H](C(C)C)NC(=O)[C@H](CC(=O)N2CCC(F)(F)CC2)N(C)C(=O)[C@H](CCc2ccc(C(F)(F)F)c(Cl)c2)NC(=O)CN(C)C(=O)[C@H](CC2CCCCC2)N(C)C(=O)CN(C)C(=O)CN(C)C1=O` [Compound 1078] ([NMeL]I[Sar][Sar][NMeCha][Sar][hPhe(3-Cl-4-CF3)][NMeD](N(CH2CH2)2CF2)V[NMeV][NMeD]-Piperidide; lactam N-11), the negative logarithm of the IC50 (pIC50) was 6.72.

In general, pIC50 refers to −log10 of the IC50, conventionally taken in molar units.
